Test results as given in patent US20090137628A1, “Formulations of Indanylamines and the Use Thereof as Local Anesthetics and as Medication for Chronic Pain” (BRIDGE PHARMA, INC., priority 2005, published 2009).

Key:
[1] = Physical state of LAC-34 solutions at 4° C.; assay type: physicochemical; conditions: 20% LAC-34 in benzyl alcohol
[2] = system: animal models of neuropathic pain; experiment: Animal models of neuropathic pain; assay type: in vivo; conditions: potentiated by addition of capsaicin
[3] = Solubility in ternary solvent mixture with water as anti-solvent; assay type: physicochemical; conditions: 150 mg LAC-34 free base; 1 ml polyethylene glycol + 1 ml ethanol + 0.6 ml water
[4] = system: Na+ channel (site 2) in the rat cerebral cortex; conditions: 10 nM [3H]batrachotoxin, 60 min at 22° C., rat cerebral cortex membranes; read-out: IC50-values for inhibition of batrachotoxinin binding
[5] = Local vasodilatation at the dermal injection site; assay type: in vivo; conditions: contrary to lidocaine
[6] = Saturation solubility in key solvents for dermal drug delivery; assay type: physicochemical
Procedure: A liquid's capability to solubilize LAC-34 was screened by adding a known mass of LAC-34 to a known volume/mass of liquid. Saturation solubility was measured by adding an excess of drug substance and allowing the suspension to equilibrate while stirring for 2-3 days. A sample of the suspension was filtered though a 0.2 μm PTFE membrane followed by dilution (if required) and HPLC analysis. For several mixed solvent systems that included water, a known mass of drug substance was dissolved in a known mass of solvent(s). This solution was then titrated with water while stirring until the solution became cloudy.
HPLC analysis was performed with a HP 1050 system (He degasser, quaternary pump, auto-injector, and variable wavelength detector). The column heater was manufactured by Waters. Data collection and analysis was performed using Chemstation® software.
The saturation solubility of LAC-34 was measured in capric/caprylic triglycerides (CCT), dimethylsulfoxide (DMSO), ethanol, isopropanol, isopropyl myristate (IPM), pentane, propylene glycol (PG), and water. […]
All of the solvents, with the exception of water, were able to dissolve large quantities of LAC-34. […] Propylene glycol (PG), which has multiple actions for dermal drug delivery (see Table 1), was also able to solubilize significant quantities of LAC-34. […]

guinea pigs = experiment: Dermal anesthetic activity after dermal application, pinprick method (algesimeter); assay type: in vivo, guinea pig; conditions: highest score over time after patch removal, 5.0% solution
Procedure: The purpose of this study was to determine the degree to which various salt forms of LAC-34 contribute to the local dermal anesthetic effect of the compound, following dermal application to guinea pigs.
Four groups of six male guinea pigs received a dose of 2.0 ml of a 5.0% solution of four test articles (LAC-34 base, LAC-34 mono-HCl, LAC-34-di HCl and LAC-34 mesylate) that had been applied onto a two inch square, 4 layer thick gauze pad on depilated dosal skin of each guinea pig. Similarly, one group of guinea pigs received the vehicle, which consisted of DMSO/water (90 percent/10 percent, v/v) and served as the control group. The gauze was occluded and the guinea pigs were wrapped for 30 min. Animals were assessed for initial pain reaction (anesthetic depth) at 15 minute intervals up to 3 hours and at 24 hours. An algesimeter, set at 10 g, was employed to assess the onset and depth of anesthesia using the pinprick method causing a twitch response or non-response. The “Average Anesthetic Score” was defined as number of probings not producing a dermal twitch response. Thus, a situation where there were no dermal twitch responses to six probings represent a maximal anesthetic effect and is denoted as an Average Anesthetic Score of 6.

c1ccc(N(CCC2CCCCN2)C2Cc3ccccc3C2)cc1 (racemic) [LAC-34, 2-[2-(N-Phenyl-N-2-indanyl)aminoethyl]piperidine]
Physical state at 4° C. [1]: still a solution
Analgesic activity [2]: exerts analgesic activity
Solubility in ternary solvent mixture [3]: 5.5 % (w/w)
IC50 [4]: 270 nM
Local vasodilatation at the dermal injection site [5]: not to cause local vasodilatation
Solubility in isopropanol ([6]; 0.25 g LAC-34 solubilized once isopropanol level was 0.225 g): approximately 526 mg/mL
LAC-34 Solubility (saturation) ([6]; solvent as printed on the line: Propylene glycol (PG)): 5 µg/mL
Maximal depth of anesthesia (Average Anesthetic Score) (guinea pigs): 4.8
